{
  "source": "EPA's ToxValDB 9.5",
  "key": {"[1]": {"tested_on": "Oryctolagus sp.", "details": "dermal, New Zealand; for LD50: acute"}, "[2]": {"tested_on": "Canidae", "details": "oral"}, "[3]": {"tested_on": "Rattus norvegicus", "details": "for LC50 / LD50: acute"}, "[4]": {"tested_on": "Mus musculus"}, "[5]": {"tested_on": "Canidae", "details": "chronic; duration: 52 weeks; oral; diet; Dog Other; Kidney: Effects + Liver: Effects"}, "[6]": {"tested_on": "Canidae", "details": "chronic; duration: 1 years; oral; diet; M/F; Dog Other; kidney and liver toxicity"}, "[7]": {"tested_on": "Rattus norvegicus", "details": "subchronic, oral, drinking water, Fischer 344, Deaths + Clinical Observation: Tremors Diarrhea Emaciation Abnormal posture Pallor Tachypnea Comatose state + Body Weight Changes: decrease…"}, "[8]": {"tested_on": "Oryctolagus sp.", "details": "subchronic; inhalation; M; New Zealand White / Sprague-Dawley; testicular effects"}, "[9]": {"tested_on": "Cavia porcellus", "details": "acute; inhalation; Guinea Pig"}, "[10]": {"tested_on": "Mus musculus", "details": "uterotrophic; duration: 3 days; injection; intraperitoneal; Active"}, "[11]": {"tested_on": "Bird", "details": "oral, diet"}, "[12]": {"details": "chronic, duration: 118 weeks, oral, diet, F, Sprague-Dawley"}, "[13]": {"details": "chronic, duration: 118 weeks, oral, diet, M, Sprague-Dawley"}, "[14]": {"details": "developmental, duration: 20 days, oral, drinking water, Osborne-Mendel"}, "[15]": {"details": "reproduction developmental, duration: 27 weeks, oral, diet, Charles River Ceesarean albino, generation: F0"}, "[16]": {"details": "reproduction developmental, duration: 118 weeks, oral, diet, F, Sprague-Dawley"}, "[17]": {"details": "reproduction developmental, duration: 118 weeks, oral, diet, M, Sprague-Dawley"}, "[18]": {"details": "reproduction developmental, oral, diet, Crl:CD(SD)"}, "[19]": {"details": "subchronic, duration: 90 days, oral, diet, B6C3F1"}, "[20]": {"details": "reproduction developmental, duration: 21 days"}, "[21]": {"details": "reproduction developmental, duration: 10 days, oral, gavage, F, Crl:CD(SD)"}, "[22]": {"details": "reproduction developmental, duration: 28 days, oral, diet"}, "[23]": {"details": "subchronic, duration: 90 days, oral, diet, Sprague-Dawley"}},
  "data": [
    {"smiles": "CC(C)(C)c1cc(CCC(=O)OCCSCCOC(=O)CCc2cc(C(C)(C)C)c(O)c(C(C)(C)C)c2)cc(C(C)(C)C)c1O", "values": [
      {"measurement": "LD50", "setting": "[1]; occlusive", "result": "> 3000", "unit": "mg/kg"},
      {"measurement": "NOAEL", "setting": "[2]; subchronic, duration: 90 days, diet, Beagle", "result": 74, "unit": "mg/kg-day"},
      {"measurement": "LC50", "setting": "[3]; inhalation, whole body", "result": "> 6300", "unit": "mg/m3"},
      {"measurement": "LD50", "setting": "[3]; oral, gavage", "result": "> 5000", "unit": "mg/kg"},
      {"measurement": "NOAEL", "setting": "[3]; chronic, duration: 93 days, oral, diet, F", "result": 4.5, "unit": "mg/kg-day"},
      {"measurement": "NOAEL", "setting": "[3]; chronic, duration: 93 days, oral, diet, M", "result": 4.4, "unit": "mg/kg-day"},
      {"measurement": "NOAEL", "setting": "[3]; subchronic, duration: 90 days, oral, diet", "result": 960, "unit": "mg/kg-day"}
    ]},
    {"smiles": "COc1cc(S(=O)(=O)[O-])c(C)cc1N=Nc1c(O)ccc2cc(S(=O)(=O)[O-])ccc12.[Na+].[Na+]", "values": [
      {"measurement": "NOAEL (% diet)", "setting": "[4]; chronic, duration: 104 weeks, oral, diet, CD1", "result": "> 5.19"},
      {"measurement": "LD50", "setting": "[2]; acute, gavage, Dog Other", "result": "> 5000", "unit": "mg/kg"},
      {"measurement": "LD50", "setting": "[3]; oral, gavage, Sprague-Dawley", "result": "> 10000", "unit": "mg/kg"},
      {"measurement": "LOAEL", "setting": "[3]; [12]", "result": 3600, "unit": "mg/kg-day"},
      {"measurement": "NOAEL", "setting": "[3]; [12]", "result": 901, "unit": "mg/kg-day"},
      {"measurement": "LOAEL", "setting": "[3]; [13]", "result": "> 2830", "unit": "mg/kg-day"},
      {"measurement": "NOAEL", "setting": "[3]; [13]", "result": 2830, "unit": "mg/kg-day"},
      {"measurement": "NOAEL", "setting": "[3]; developmental, duration: 19 days, oral, gavage, Osborne-Mendel", "result": 1000, "unit": "mg/kg-day"},
      {"measurement": "LOAEL", "setting": "[3]; [14]", "result": 546, "unit": "mg/kg-day"},
      {"measurement": "NOAEL", "setting": "[3]; [14]", "result": 274, "unit": "mg/kg-day"},
      {"measurement": "LOAEL", "setting": "[3]; [15]", "result": 51900, "unit": "ppm"},
      {"measurement": "NOAEL", "setting": "[3]; [15]", "result": 13900, "unit": "ppm"},
      {"measurement": "LOAEL", "setting": "[3]; [16]", "result": 3600, "unit": "mg/kg-day"},
      {"measurement": "NOAEL", "setting": "[3]; [16]", "result": 901, "unit": "mg/kg-day"},
      {"measurement": "LOAEL", "setting": "[3]; [17]", "result": "> 2830", "unit": "mg/kg-day"},
      {"measurement": "NOAEL", "setting": "[3]; [17]", "result": 2830, "unit": "mg/kg-day"},
      {"measurement": "NOAEL", "setting": "[3]; reproduction developmental, duration: 19 days, oral, gavage, F, Osborne-Mendel", "result": 1000, "unit": "mg/kg-day"},
      {"measurement": "NOAEL", "setting": "[3]; reproduction developmental, duration: 20 days, oral, drinking water, F, Osborne-Mendel", "result": 939, "unit": "mg/kg-day"},
      {"measurement": "LOAEL", "setting": "[3]; reproduction developmental, duration: 20 days, oral, drinking water, Osborne-Mendel, generation: F1", "result": 546, "unit": "mg/kg-day"},
      {"measurement": "LOAEL", "setting": "[3]; [18]", "result": 51900, "unit": "ppm"},
      {"measurement": "NOAEL", "setting": "[3]; [18]", "result": 13900, "unit": "ppm"}
    ]},
    {"smiles": "Cc1cc(Cl)ccc1OCC(=O)O", "note": "[2-(4-Chloro-2-methylphenoxy)acetic acid]", "values": [
      {"measurement": "NOEL", "setting": "[5]", "result": 0.15, "unit": "mg/kg-day"},
      {"measurement": "LEL", "setting": "[6]", "result": 0.75, "unit": "mg/kg-day"},
      {"measurement": "NOEL", "setting": "[6]", "result": 0.15, "unit": "mg/kg-day"}
    ]},
    {"smiles": "COCCO", "note": "[2-Methoxyethanol]", "values": [
      {"measurement": "NOEL", "setting": "[7]; F", "result": 70, "unit": "mg/kg-day"},
      {"measurement": "NOEL", "setting": "[7]; M/F", "result": "< 114", "unit": "mg/kg-day"},
      {"measurement": "LOAEL", "setting": "[8]", "result": 311, "unit": "mg/m3"},
      {"measurement": "NOAEL", "setting": "[8]", "result": 93, "unit": "mg/m3"}
    ]},
    {"smiles": "CC(C)(c1cc(Br)c(O)c(Br)c1)c1cc(Br)c(O)c(Br)c1", "note": "[3,3',5,5'-Tetrabromobisphenol A]", "values": [
      {"measurement": "LC50", "setting": "[4]; acute, inhalation, NMDI", "result": "> 50", "unit": "mg/L"},
      {"measurement": "LOAEL", "setting": "[4]; [19]", "result": 3070, "unit": "mg/kg-day"},
      {"measurement": "NOAEL", "setting": "[4]; [19]", "result": 965, "unit": "mg/kg-day"},
      {"measurement": "LC50", "setting": "[9]", "result": "> 50", "unit": "mg/L"},
      {"measurement": "LD50", "setting": "[1]", "result": "> 2000", "unit": "mg/kg"},
      {"measurement": "LOAEL", "setting": "[1]; [20]", "result": "> 2500", "unit": "mg/kg-day"},
      {"measurement": "NOAEL", "setting": "[1]; [20]", "result": 2500, "unit": "mg/kg-day"},
      {"measurement": "LC50", "setting": "[3]; inhalation", "result": "> 28200", "unit": "mg/m3"},
      {"measurement": "LC50", "setting": "[3]; inhalation, Wistar", "result": "> 50", "unit": "mg/L"},
      {"measurement": "LD50", "setting": "[3]; oral, gavage, Sprague-Dawley", "result": "> 5000", "unit": "mg/kg"},
      {"measurement": "NOAEL", "setting": "[3]; developmental, duration: 19 days, oral, gavage", "result": 1000, "unit": "mg/kg-day"},
      {"measurement": "LOAEL", "setting": "[3]; developmental, duration: 19 days, oral, gavage, Wistar", "result": "> 2500", "unit": "mg/kg-day"},
      {"measurement": "NOAEL", "setting": "[3]; developmental, duration: 20 days, oral, Wistar", "result": 2500, "unit": "mg/kg-day"},
      {"measurement": "LOAEL", "setting": "[3]; [21]", "result": 5000, "unit": "mg/kg-day"},
      {"measurement": "NOAEL", "setting": "[3]; [21]", "result": 3000, "unit": "mg/kg-day"},
      {"measurement": "LOAEL", "setting": "[3]; reproduction developmental, duration: 14 days, inhalation", "result": 6, "unit": "mg/L"},
      {"measurement": "LOAEL", "setting": "[3]; reproduction developmental, duration: 19 days, oral, gavage, F", "result": "> 1000", "unit": "mg/kg-day"},
      {"measurement": "NOAEL", "setting": "[3]; reproduction developmental, duration: 20 days, oral, gavage, F, Sprague-Dawley", "result": 1000, "unit": "mg/kg-day"},
      {"measurement": "LOAEC", "setting": "[3]; [22]", "result": "> 1000", "unit": "ppm"},
      {"measurement": "NOAEL", "setting": "[3]; [22]", "result": "≥ 1000", "unit": "ppm"},
      {"measurement": "LOAEL", "setting": "[3]; reproduction developmental, oral, gavage, Sprague-Dawley, generation: F0", "result": 1000, "unit": "mg/kg-day"},
      {"measurement": "LOAEL", "setting": "[3]; [23]", "result": "> 100", "unit": "mg/kg-day"},
      {"measurement": "NOAEL", "setting": "[3]; [23]", "result": "> 100", "unit": "mg/kg-day"},
      {"measurement": "NOAEL", "setting": "[3]; subchronic, duration: 90 days, oral, gavage, Sprague-Dawley", "result": 1000, "unit": "mg/kg-day"},
      {"measurement": "LEL", "setting": "[10]", "result": 20, "unit": "mg/kg-day"}
    ]},
    {"smiles": "Cc1cc(C(C)(C)c2ccc(O)c(C)c2)ccc1O", "note": "[3,3'-Dimethylbisphenol A]", "values": [
      {"measurement": "NOEL", "setting": "[11]; short-term, duration: 1 month, M, Chicken, body weight", "result": 0.3, "unit": "%"},
      {"measurement": "LOEL", "setting": "[11]; short-term, duration: 1 month, M, Chicken, mortality", "result": 0.3, "unit": "%"},
      {"measurement": "NOEL", "setting": "[11]; subchronic, duration: 12 week, M/F, White leghorn chicken, mortality", "result": 0.3, "unit": "%"},
      {"measurement": "LOEL", "setting": "[11]; subchronic, duration: 12 week, M, White leghorn chicken, body weight", "result": 0.3, "unit": "%"},
      {"measurement": "NOEL", "setting": "[11]; subchronic, duration: 12 week, M, White leghorn chicken, body weight + mortality", "result": 0.3, "unit": "%"}
    ]}
  ]
}
